# Target: recombinant full-length human BTK kinase (Homo sapiens (Human), UniProt Q06187)
# Experiment: BTK kinase assay: ADP generation assay (ADP-Glo)
# Type: biochemical
# Conditions: 60 nM BTK, 1.6 μM ATP, 20 μM MBP substrate, 60 min at room temperature
# Experimental: The primary assay for compound inhibitory activity was the ADP generation assay described herein. Test compounds were diluted to desired concentrations in kinase reaction buffer and briefly incubated with recombinant full-length human BTK kinase with a (His)6 tag (81.3 kDa; Invitrogen Corporation, Carlsbad, Calif.). The assay as described is based on volumes used in a standard 384 well format using solid, white-wall plates. The reaction was subsequently initiated by the addition of ATP and myelin basic protein (MBP) substrate (Millipore Corporation, Waltham, Mass.). Composition of the assay reaction mixture ([…]) was: 5% v/v DMSO, 60 nM BTK, 1.6 μM ATP, and 20 μM MBP substrate. […] Luminescence was measured on an EnVision® microplate reader (PerkinElmer). The amount of luminescence from each reaction is directly correlated with BTK kinase activity. Percent inhibition and IC50 values were calculated by comparing enzyme activity in drug-treated wells to the appropriate controls.
# IC50 values are determined using GraphPad Prism 5 software. […]
# Activity (IC50) was determined in the BTK assays describe herein above, i.e. either the ADP generation assay and/or the time-resolved FRET assay, and the data are shown in Table III. […]
# Sequence of recombinant full-length human BTK kinase (Q06187 whole entry): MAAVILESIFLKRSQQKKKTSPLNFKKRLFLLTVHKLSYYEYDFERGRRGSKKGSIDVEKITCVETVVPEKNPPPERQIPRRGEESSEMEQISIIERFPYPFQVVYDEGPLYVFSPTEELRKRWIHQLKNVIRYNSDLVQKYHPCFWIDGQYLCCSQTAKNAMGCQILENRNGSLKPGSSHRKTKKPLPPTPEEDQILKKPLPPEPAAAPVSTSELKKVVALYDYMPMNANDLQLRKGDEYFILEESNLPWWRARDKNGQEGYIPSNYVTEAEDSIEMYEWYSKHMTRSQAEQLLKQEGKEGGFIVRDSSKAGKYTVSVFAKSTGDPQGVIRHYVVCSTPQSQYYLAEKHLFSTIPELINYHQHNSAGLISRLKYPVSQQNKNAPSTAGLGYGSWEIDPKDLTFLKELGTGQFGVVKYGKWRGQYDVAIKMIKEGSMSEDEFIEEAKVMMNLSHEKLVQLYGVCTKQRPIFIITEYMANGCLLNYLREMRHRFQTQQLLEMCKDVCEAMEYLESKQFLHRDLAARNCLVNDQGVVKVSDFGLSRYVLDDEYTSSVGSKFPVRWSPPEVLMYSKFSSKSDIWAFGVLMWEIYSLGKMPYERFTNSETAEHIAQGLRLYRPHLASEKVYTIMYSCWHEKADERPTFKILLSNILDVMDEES
row,Structure (SMILES),IC50
1,"C=CC(=O)Nc1cccc(-c2nc(Nc3ccc(N4CCOCC4)c(OP(=O)(OC(C)C)OC(C)C)c3)ncc2Cl)c1 [Compound 2, 5-((4-(3-acrylamidophenyl)-5-chloropyrimidin-2-yl)amino)-2 - morpholinophenyl diisopropyl phosphate]",3.58 µM
2,"C=CC(=O)Nc1cccc(-c2nc(Nc3ccc(N4CCOCC4)c(O)c3)ncc2Cl)c1 [Compound 1, N-(3-(5-chloro-2-((3-hydroxy-4-morpholinophenyl)amino)pyrimidin-4-yl)phenyl)acrylamide]",0.004 µM

# From patent US9296703B2, “Substituted N-(3-(pyrimidin-4-yl)phenyl)acrylamide analogs as tyrosine receptor kinase BTK inhibitors” (University of Utah Research Foundation, priority 2012, dated 2016)
